Laboratory results as given in publication PMC13080581, “Identification and characterization of vasoactive intestinal peptide receptor antagonists with high-affinity and potent anti-leukemia activity” (The Journal of Biological Chemistry, 2025).
Ends that are not written are not given here.

How the values were obtained:
in vitro = in vitro ADME; conditions: human, plasma
Text: Data were plotted using GraphPad Prism.

C1498ff cells = assay: C1498ff leukemia model in B6 albino mice, ANT308 schedules; assay type: in vivo, mouse; conditions: high-dose (100 μg)
Description: All experimental procedures involving animals were approved by the Institutional Animal Care and Use Committee (IACUC) at Emory University. On day 0, B6 mice were injected by tail vein injection (i.v.) with 1 × 10^6 C1498 cells. DBA/2 mice were injected subcutaneously (s.c.) with 1 x 10^5 P815-luciferase mastocytoma cells. Growth of luciferase + C1498ff in B6 albino recipients was assessed by bioluminescent imaging (BLI) after mice were anesthetized, injected intraperitoneally (i.p.) with luciferin substrate (15 μg/g mouse), and imaged using an IVIS imaging system, starting at day 6 before treatment and continuing once weekly. Albino B6 mice surviving to >60 days without evidence of AML (by luciferase assay) received a second injection of a two-fold higher dose of C1498 (2 × 10^6 cells). DBA/2 mice that received P815 cells and treatment with ANT308, and survived past 60 days, were rechallenged using 2 x 10^5 P815 cells. Lymphocyte kinetics and C1498 leukemia cell burden were analyzed weekly through pterygoid venous plexus blood collection in CD45.1+ B6.SJL recipients; CD45.2 C1498 tumor cells were differentiated from CD45.1 host cells by flow cytometry. Mice that reached endpoint conditions were euthanized and counted as dead on the next day. […]

[1] = In vivo plasma half-life of 6xHis-tagged peptides after i.v. injection, western blot; conditions: mouse, iv
Description: (§1) Plasma was collected at multiple time points post-injection and analyzed by SDS-PAGE using 12% polyacrylamide gel. Densitometry was performed using ImageJ and % peptide remaining was plotted using GraphPad Prism. The images were acquired using BioRad ChemiDoc Touch Imaging System with Image Lab Touch Software.

[2] = biological target: T1, VPAC1 on Vipr2 KO murine T-cells (Mus musculus, UniProt P97751); assay: Immunostaining colocalization with VPAC1 on Vipr2 KO murine T-cells; assay type: cell-based; conditions: Pearson's correlation
T1 construct: Vipr2 knockout (KO) T-cells stained for VPAC1 (green); endogenous in cells; host or cells: T cells from Vipr2 knockout mice
T1 sequence (P97751 31-459): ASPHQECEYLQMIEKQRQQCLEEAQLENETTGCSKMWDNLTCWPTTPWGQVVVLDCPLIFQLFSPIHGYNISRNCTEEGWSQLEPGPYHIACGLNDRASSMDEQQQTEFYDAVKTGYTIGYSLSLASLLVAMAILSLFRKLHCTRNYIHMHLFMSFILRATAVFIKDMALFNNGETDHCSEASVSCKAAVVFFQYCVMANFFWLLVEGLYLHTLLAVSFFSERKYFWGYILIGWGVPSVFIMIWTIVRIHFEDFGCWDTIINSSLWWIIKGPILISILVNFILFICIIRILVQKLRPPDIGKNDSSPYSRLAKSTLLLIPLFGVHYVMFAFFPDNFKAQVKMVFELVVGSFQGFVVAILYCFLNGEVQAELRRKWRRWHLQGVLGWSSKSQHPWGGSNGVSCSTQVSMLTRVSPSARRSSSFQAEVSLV
Description: Merge + NucleusSupplementary Figure 5. Immunostaining showing 6xHis-ANT308, 6xHis-VIP, and 6xHis-Scrambled-sequence peptides colocalization with VPAC1 on murine T-cells surface. Isolated T-cells from naïve wild-type (WT) C57BL/6 mice were activated with α-CD3/α-CD28 beads and incubated with 10µM (A-F) ANT308-6xHis, (G-L) VIP-6xHis and (M-R) VIP fully SCRAM-6xHis in the presence of IL-2 (30 IU/mL) for 1 hour. The cells were fixed with 4% Paraformaldehyde, stained with VPAC1 (green), 6xHis-tag (magenta) & Hoechst (blue) and visualized on Cell-Tak coated glass-bottom plates. (A-C, G-I and M-O) en face view, (D,J & P) representative field view, (E, K & Q) 3D view, (F, L & R) line scan profiles showing colocalization patterns of ANT308-6xHis, VIP-6xHis and VIP-fully scrambled-6xHis with VPAC1 on T-cell membrane. Relative fluorescence intensity (RFI), arbitrary unit. (S) Quantification of co-localization using Pearson’s correlation coefficient (R-value). Data are shown as mean ± SD with individual data points (n=10). Statistical significance was determined by one-way Anova with post-hoc multiple comparisons. **** p < 0.0001, *** p < 0.001. Scale 2.5µm.
Supplementary Figure 6. […] (K) Quantification of co-localization using Pearson’s correlation coefficient (R-value). […] Statistical significance was determined by one-way Anova with post-hoc multiple comparisons. **** p < 0.0001. […]

in vivo = conditions: mouse, iv
Description: as §1

human T cells = conditions: 3 µM
[3] = biological target: VIP receptor (VIP-R) on human T cells (human (endogenous in human T cells)) (UniProt P32241)
VIP receptor (VIP-R) on human T cells (human (endogenous in human T cells)), sequence (P32241 31-457): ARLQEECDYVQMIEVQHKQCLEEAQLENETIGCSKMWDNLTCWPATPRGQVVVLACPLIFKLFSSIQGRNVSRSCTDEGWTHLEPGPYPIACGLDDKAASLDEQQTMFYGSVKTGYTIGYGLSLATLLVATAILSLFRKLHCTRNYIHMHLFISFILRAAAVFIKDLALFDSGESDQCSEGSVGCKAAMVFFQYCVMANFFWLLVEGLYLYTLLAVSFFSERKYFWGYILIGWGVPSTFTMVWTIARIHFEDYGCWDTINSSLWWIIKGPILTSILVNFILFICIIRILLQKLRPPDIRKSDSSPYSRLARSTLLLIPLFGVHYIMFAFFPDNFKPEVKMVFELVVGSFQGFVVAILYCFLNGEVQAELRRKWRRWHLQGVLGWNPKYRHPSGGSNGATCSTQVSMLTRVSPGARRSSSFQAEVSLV

CC[C@H](C)[C@H](NC(=O)[C@H](CO)NC(=O)[C@H](CC(N)=O)NC(=O)[C@H](CC(C)C)NC(=O)[C@H](Cc1ccc(O)cc1)NC(=O)[C@H](CCCCN)NC(=O)[C@H](CCCCN)NC(=O)[C@@H](NC(=O)[C@H](C)NC(=O)[C@H](CCSC)NC(=O)[C@H](CCC(N)=O)NC(=O)[C@H](CCCCN)NC(=O)[C@H](CCCNC(=N)N)NC(=O)[C@H](CC(C)C)NC(=O)[C@H](CCCNC(=N)N)NC(=O)[C@@H](NC(=O)[C@H](Cc1ccc(O)cc1)NC(=O)[C@H](CC(N)=O)NC(=O)[C@H](CC(=O)O)NC(=O)[C@@H](NC(=O)[C@H](Cc1ccccc1)NC(=O)[C@@H](NC(=O)[C@H](C)NC(=O)[C@H](CC(=O)O)NC(=O)[C@H](CO)NC(=O)[C@@H](N)Cc1c[nH]cn1)C(C)C)[C@@H](C)O)[C@@H](C)O)C(C)C)C(=O)N[C@@H](CC(C)C)C(=O)N[C@@H](CC(N)=O)C(=O)N[C@@H](Cc1c[nH]cn1)C(=O)N[C@@H](Cc1c[nH]cn1)C(=O)N[C@@H](Cc1c[nH]cn1)C(=O)N[C@@H](Cc1c[nH]cn1)C(=O)N[C@@H](Cc1c[nH]cn1)C(=O)N[C@@H](Cc1c[nH]cn1)C(N)=O [VIP-6xHis, reference compound]
half-life (in vitro): ~15 min

KPRRPYTSDYTRLRKQMAVKKYLNLILN-NH2 [ANT308]
toxic effects in weight or behavior of treated mice (C1498ff cells): did not produce any observable toxic effects

YDDHTKLKINTARLVSAQSNVFNMLKYRHHHHHH-NH2 (C-terminus assumed) [VIP fully SCRAM-6xHis]
half-life [1]: ~30 min | co-localization with VPAC1 in Vipr2 KO murine T-cells [2]: shows no overlap

KPRRPYTSDYTRLRKQMAVKKYLNLILNHHHHHH-NH2 [ANT308-6xHis]
half-life (in vivo): ~15 min | half-life (in vitro): ~15 min

KPRRPYTVNYTSLRKQIAVKKYLMLILN-NH2 [ANT195]
T cell viability (human T cells): ~30%

KPRRPYTSDYTRLRKQMAVKKYLNLILN-NH2 [ANT308]
CD69 expression on CD4+ or CD8+ pooled human T cells treated with increasing concentrations of ANT308 (T cell activation, flow cytometry) [3]: 0.3 to 0.4 µM
